This series can be described thus: Quantum yield. Type of series: physicochemical. The source says: Quantum yield may be obtained by comparison of the integrated area of the corrected emission spectrum of the sample with that of a reference solution. A preferred reference solution is a solution of fluorescein in 0.1 N NaOH, quantum efficiency 0.95. The concentration of the reference is adjusted to match the absorbance of the test sample. The quantum yields may be calculated using the following equation.
Upon addition of excess NO, a 499 nm peak in the UV-vis spectrum of Cu(FL5) in pH 7.0 buffered solution red-shifted back to the λmax characteristic of FL5 or the synthetic FL5−NO compound (504 nm), which differs from the band formed in the reaction of FL5 with 1 equivalent of Cu(I) added as [Cu(CH3CN)4](BF4) (506 nm). […] In addition, the spectrum of the NO reaction solution closely resembled that of the monoanionic fluorescein formed by lowering the pH from 7.0 to 5.0. […] These values are in the range previously reported for N-nitrosamines. The presence of two separate chemical shifts might arise from different isomers in solution, the Δδ of 2.29 being similar to that of previously reported of N-nitrosamines. […] Lastly, FL5−NO is brighter than FL5 or Cu(FL5), the respective quantum yields being ΦFL-NO=0.58±0.02 and ΦFL=0.077±0.002.

SMILES strings stand for the structures.

`Cc1ccc2cccc(NCc3c(O)ccc4c(-c5ccccc5C(=O)O)c5cc(Cl)c(=O)cc-5oc34)c2n1` [FL5, 2-{2-chloro-6-hydroxy-5-[(2-methyl-quinolin-8-ylamino)-methyl]-3-oxo-3H-xanthen-9-yl}-benzoic acid]: the “quantum yield Φ” value is given as 0.077±0.002.
